Consider three compounds from patent US10414811B2, “Protease-resistant lipidated GLP-1 analogs” (MEDIMMUNE LIMITED, priority 2015, dated 2019).

Read-outs that look alike come from different tables or passages of the source. Numbered stars: 1 amine (or outer) side, 2 acyl side, 3 side chain; on linkers, the order of the positions; unused ones are H or OH. Square brackets hold non-standard residues; d marks the D form. Side chains are listed from the residue outwards. Peptide text beside a SMILES is read from it. * marks the point of attachment. γGlu = O=C(O)[C@H](CCC(=O)[*:2])N[*:1]; Stearoyl = CCCCCCCCCCCCCCCCCC(=O)*; αMeF = C[C@](N)(Cc1ccccc1)C(=O)O; αMeK = C[C@](N)(CCCCN)C(=O)O; Lauroyl = CCCCCCCCCCCC(=O)*; αMeS = C[C@](N)(CO)C(=O)O; AEEA = NCCOCCOCC(=O)O; Aib = CC(C)(N)C(=O)O

The target in experiment [1] is T1, GLP-1R (INS1e assay) (Rattus norvegicus, UniProt P32301).
T1 construct: endogenous in cells; host or cells: INS-1E cells
T1 sequence (P32301 22-463): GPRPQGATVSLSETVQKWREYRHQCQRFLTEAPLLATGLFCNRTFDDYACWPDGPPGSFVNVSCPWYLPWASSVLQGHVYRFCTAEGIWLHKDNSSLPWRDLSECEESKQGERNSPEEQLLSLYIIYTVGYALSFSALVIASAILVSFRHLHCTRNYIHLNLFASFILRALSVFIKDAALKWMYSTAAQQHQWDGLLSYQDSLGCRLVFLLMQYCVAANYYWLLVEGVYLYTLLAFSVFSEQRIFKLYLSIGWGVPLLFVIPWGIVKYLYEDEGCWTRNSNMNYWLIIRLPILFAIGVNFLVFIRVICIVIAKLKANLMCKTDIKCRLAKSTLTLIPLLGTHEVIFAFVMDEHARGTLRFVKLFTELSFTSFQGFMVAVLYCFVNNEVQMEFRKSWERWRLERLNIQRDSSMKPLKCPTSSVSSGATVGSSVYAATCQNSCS
The experiment is described as follows: INS1e assay, cAMP activity at GLP-1R. In kind it is cell-based. Particulars: bis-lipidated peptides. How it is done:
cAMP levels are measured using a commercially available cAMP dynamic 2 HTRF kit (Cisbio, Cat #62AM4PEJ), following the two step protocol as per manufacturer's recommendations. In brief; anti-cAMP cryptate (donor fluorophore) and cAMP-d2 (acceptor fluorophore) are made up separately by diluting each 1/20 in conjugate & lysis buffer provided in the kit. 5 μL anti-cAMP cryptate is added to wells of the assay plate, and 5 μL cAMP-d2 is added to wells except non-specific binding (NSB) wells, to which conjugate and lysis buffer are added. […] EC50 values of the synthetic peptides determined in cAMP assays are then determined.

For experiment [2], the target named is T2, human GLP-1 receptor (GLP-1R) (Homo sapiens, UniProt P43220).
T2 construct: expressed in transfected cells
T2 sequence (P43220 24-463): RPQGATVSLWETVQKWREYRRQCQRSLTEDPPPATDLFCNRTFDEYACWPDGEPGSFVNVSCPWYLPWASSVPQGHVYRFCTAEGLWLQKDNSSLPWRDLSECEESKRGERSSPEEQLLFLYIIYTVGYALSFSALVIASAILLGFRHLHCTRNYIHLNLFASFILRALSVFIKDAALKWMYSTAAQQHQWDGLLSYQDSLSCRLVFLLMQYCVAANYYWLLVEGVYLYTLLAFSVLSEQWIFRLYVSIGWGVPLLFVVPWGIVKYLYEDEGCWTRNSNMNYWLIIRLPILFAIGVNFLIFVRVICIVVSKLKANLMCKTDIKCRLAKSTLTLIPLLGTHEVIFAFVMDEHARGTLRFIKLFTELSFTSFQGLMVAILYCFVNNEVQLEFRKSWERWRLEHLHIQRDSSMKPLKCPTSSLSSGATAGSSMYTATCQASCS
Description: cAMP assay, human GLP-1R cells. Particulars: bis-lipidated peptides. The class given is cell-based. Summed up:
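Peptide-stimulated cAMP measured by two-step HTRF after a 30 min room-temperature incubation with receptor-expressing cells (hGLP-1R, hGIPR at 1×10^5 cells/ml; hGCGR at 2×10^5 cells/ml). Duplicate dilutions; EC50 from 4-parameter logistic fit of % Delta F.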
In general terms: cAMP levels reflect the balance of adenylyl cyclase and phosphodiesterase activity.

Setting [3] is: mean of n1 and n2, read-out: INS1e assay EC50 Mean pM GLP-1R.
[4] abbreviates: replicate n1, read-out: INS1e assay EC50 GLP-1R n1.
The mark [5] stands for this setting: replicate n2, read-out: INS1e assay EC50 GLP-1R n2.
The mark [6] stands for this setting: mean of n1 and n2, read-out: Primary assay EC50 Mean pM GLP-1R.
Setting [7] is: replicate n1, read-out: Primary assay EC50 GLP-1R n1.
The mark [8] stands for this setting: replicate n2, read-out: Primary assay EC50 GLP-1R n2.

As to `CCCCCCCCCCCCCCCCCC(=O)N[C@@H](CCC(=O)NCCOCCOCC(=O)NCCOCCOCC(=O)NCCCC[C@H](NC(=O)[C@H](C)NC(=O)[C@@H](NC(=O)[C@](C)(Cc1ccccc1)NC(=O)[C@H](CCC(=O)O)NC(=O)[C@](C)(CCCCN)NC(=O)[C@H](C)NC(=O)[C@H](C)NC(=O)[C@H](CCC(=O)O)NC(=O)CNC(=O)[C@H](CCC(=O)O)NC(=O)[C@H](CC(C)C)NC(=O)[C@H](CCCCNC(=O)COCCOCCNC(=O)COCCOCCNC(=O)CC[C@H](NC(=O)CCCCCCCCCCCCCCCCC)C(=O)O)NC(=O)[C@H](CO)NC(=O)[C@](C)(CO)NC(=O)[C@@H](NC(=O)[C@H](CC(=O)O)NC(=O)[C@H](CO)NC(=O)[C@@H](NC(=O)[C@](C)(Cc1ccccc1)NC(=O)[C@H](CO)NC(=O)CNC(=O)[C@H](CCC(=O)O)NC(=O)C(C)(C)NC(=O)[C@@H](N)Cc1c[nH]cn1)[C@@H](C)O)C(C)C)[C@@H](C)CC)C(=O)N[C@H](C(=O)N[C@H](C(=O)N[C@@H](CCC(=O)O)C(=O)NCC(=O)NCC(N)=O)C(C)C)C(C)C)C(=O)O` [compound 410] (H-H[Aib]EGS[αMeF]TSDV[αMeS]SK([AEEA-AEEA-γGlu-Stearoyl])LEGEAA[αMeK]E[αMeF]IAK([AEEA-AEEA-γGlu-Stearoyl])VVEGG-NH2), the EC50 in experiment [1] (setting [3]) worked out at 780 pM; in experiment [1] (setting [4]) it was 698 pM; in experiment [1] (setting [5]) it was 862 pM; in experiment [2] (setting [6]), 187 pM; in experiment [2] (setting [7]), 248 pM; in experiment [2] (setting [8]), 126 pM.
On to `CCCCCCCCCCCC(=O)N[C@@H](CCC(=O)NCCOCCOCC(=O)NCCOCCOCC(=O)NCCCC[C@H](NC(=O)[C@H](CO)NC(=O)[C@](C)(CO)NC(=O)[C@@H](NC(=O)[C@H](CC(=O)O)NC(=O)[C@H](CO)NC(=O)[C@@H](NC(=O)[C@](C)(Cc1ccccc1)NC(=O)[C@H](CO)NC(=O)CNC(=O)[C@H](CCC(=O)O)NC(=O)C(C)(C)NC(=O)[C@@H](N)Cc1c[nH]cn1)[C@@H](C)O)C(C)C)C(=O)N[C@@H](CC(C)C)C(=O)N[C@@H](CCC(=O)O)C(=O)NCC(=O)N[C@@H](CCC(=O)O)C(=O)N[C@@H](C)C(=O)N[C@@H](C)C(=O)N[C@@](C)(CCCCN)C(=O)N[C@@H](CCC(=O)O)C(=O)N[C@@H](Cc1ccccc1)C(=O)N[C@H](C(=O)N[C@@H](CCCCNC(=O)COCCOCCNC(=O)COCCOCCNC(=O)CC[C@H](NC(=O)CCCCCCCCCCC)C(=O)O)C(=O)N[C@@H](Cc1c[nH]c2ccccc12)C(=O)N[C@H](C(=O)N[C@H](C(=O)N[C@@H](CCC(=O)O)C(=O)NCC(=O)NCC(N)=O)C(C)C)C(C)C)[C@@H](C)CC)C(=O)O` [compound 262] (H-H[Aib]EGS[αMeF]TSDV[αMeS]SK([AEEA-AEEA-γGlu-Lauroyl])LEGEAA[αMeK]EFIK([AEEA-AEEA-γGlu-Lauroyl])WVVEGG-NH2; N-terminus assumed), for which the EC50 is 552 pM in experiment [1] (setting [3]); 700 pM in experiment [1] (setting [4]); 403 pM in experiment [1] (setting [5]); 5.4 pM in experiment [2] (setting [6]); 6.73 pM in experiment [2] (setting [7]); 4.14 pM in experiment [2] (setting [8]).
Regarding `CCCCCCCCCCCC(=O)N[C@@H](CCC(=O)NCCOCCOCC(=O)NCCOCCOCC(=O)NCCCC[C@H](NC(=O)[C@H](C)NC(=O)[C@@H](NC(=O)[C@](C)(Cc1ccccc1)NC(=O)[C@H](CCC(=O)O)NC(=O)[C@](C)(CCCCN)NC(=O)[C@H](C)NC(=O)[C@H](C)NC(=O)[C@H](CCC(=O)O)NC(=O)CNC(=O)[C@H](CCC(=O)O)NC(=O)[C@H](CC(C)C)NC(=O)[C@H](CCCCNC(=O)COCCOCCNC(=O)COCCOCCNC(=O)CC[C@H](NC(=O)CCCCCCCCCCC)C(=O)O)NC(=O)[C@H](CO)NC(=O)[C@](C)(CO)NC(=O)[C@@H](NC(=O)[C@H](CC(=O)O)NC(=O)[C@H](CO)NC(=O)[C@@H](NC(=O)[C@](C)(Cc1ccccc1)NC(=O)[C@H](CO)NC(=O)CNC(=O)[C@H](CCC(=O)O)NC(=O)C(C)(C)NC(=O)[C@@H](N)Cc1c[nH]cn1)[C@@H](C)O)C(C)C)[C@@H](C)CC)C(=O)N[C@H](C(=O)N[C@H](C(=O)N[C@@H](CCC(=O)O)C(=O)NCC(=O)NCC(N)=O)C(C)C)C(C)C)C(=O)O` [compound 405] (H-H[Aib]EGS[αMeF]TSDV[αMeS]SK([AEEA-AEEA-γGlu-Lauroyl])LEGEAA[αMeK]E[αMeF]IAK([AEEA-AEEA-γGlu-Lauroyl])VVEGG-NH2), the figures for the EC50 in experiment [1] (setting [4]) and in experiment [2] (setting [8]) were 110 pM and 3.66 pM, respectively.

The EC50 is the concentration giving half of the maximal effect.
